In PMC11022729 (Advanced Science, 2024):
Several values for one entry are separate records, joined by “and”; a condition that tells them apart may be missing. Identical values can stand only once.

What was measured:
mice = assay: Vertical pole test; type: in vivo, mouse; settings: 15 min after dosing
Protocol: As a prerequisite for interpreting itch behavior experiments, we first tested motor function after systemic dosing.
Mice were placed on a rotarod treadmill (Ugo Basile, Italy) at increasing speed (4–40 rpm over 300 s) and trained for 4–5 consecutive days. Only mice that reached 300 s without falling off during the training sessions were included in the experiment. In the vertical pole test, the mice were placed head‐upward on top of a vertical pole with a rough surface (diameter, 1 cm; height, 40 cm), and the time until the animals reached the ground was recorded (cut‐off time 20 s). Only mice that reached the ground within 10 s in the baseline measurements were included in the experiment. […] The means of three trials at each time point were calculated for further analyses.

human Slack = target: T1, human Slack (Homo sapiens, UniProt Q5JUK3); assay: FluxOR potassium ion channel assay in HEK-Slack cells; type: cell-based
T1 construct: host or cells: HEK293
T1 sequence (Q5JUK3 1-1230): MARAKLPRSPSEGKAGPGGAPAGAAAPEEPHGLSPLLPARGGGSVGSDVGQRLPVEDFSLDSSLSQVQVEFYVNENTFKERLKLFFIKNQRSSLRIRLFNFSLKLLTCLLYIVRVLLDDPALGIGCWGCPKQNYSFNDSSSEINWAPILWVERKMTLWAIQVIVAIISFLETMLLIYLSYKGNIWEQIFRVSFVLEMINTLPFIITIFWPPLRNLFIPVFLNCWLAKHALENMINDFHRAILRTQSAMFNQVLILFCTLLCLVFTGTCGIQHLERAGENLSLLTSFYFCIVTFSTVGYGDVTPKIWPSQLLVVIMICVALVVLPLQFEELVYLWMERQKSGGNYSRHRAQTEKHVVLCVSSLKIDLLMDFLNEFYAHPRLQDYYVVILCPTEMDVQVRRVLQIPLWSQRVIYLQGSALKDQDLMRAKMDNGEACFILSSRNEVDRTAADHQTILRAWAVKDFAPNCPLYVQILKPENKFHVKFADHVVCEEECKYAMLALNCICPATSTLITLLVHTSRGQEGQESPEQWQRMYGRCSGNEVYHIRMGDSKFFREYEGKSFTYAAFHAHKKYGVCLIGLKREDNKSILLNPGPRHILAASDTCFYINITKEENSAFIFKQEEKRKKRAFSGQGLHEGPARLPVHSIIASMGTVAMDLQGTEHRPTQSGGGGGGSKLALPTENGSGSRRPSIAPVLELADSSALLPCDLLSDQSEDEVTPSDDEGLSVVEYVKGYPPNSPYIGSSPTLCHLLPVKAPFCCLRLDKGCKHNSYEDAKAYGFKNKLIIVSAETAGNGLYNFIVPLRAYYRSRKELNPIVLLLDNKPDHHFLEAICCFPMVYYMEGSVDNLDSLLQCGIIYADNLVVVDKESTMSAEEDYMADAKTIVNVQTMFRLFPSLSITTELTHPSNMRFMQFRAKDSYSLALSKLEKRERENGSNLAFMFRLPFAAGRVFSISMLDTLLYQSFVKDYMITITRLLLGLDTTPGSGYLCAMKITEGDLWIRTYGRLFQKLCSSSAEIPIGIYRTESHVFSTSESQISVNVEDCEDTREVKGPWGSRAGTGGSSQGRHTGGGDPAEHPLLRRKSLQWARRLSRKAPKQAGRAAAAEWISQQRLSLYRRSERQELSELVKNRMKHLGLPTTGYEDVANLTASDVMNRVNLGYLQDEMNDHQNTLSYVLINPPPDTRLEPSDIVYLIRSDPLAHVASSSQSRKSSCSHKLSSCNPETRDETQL
Protocol: The functional activity of this series of compounds against human Slack was determined using a cell‐based FluxOR potassium ion channel assay in cultured HEK293 cells stably expressing human Slack (herein referred to as HEK‐Slack cells) and a Na^+‐free assay buffer to prevent compound‐independent Slack activation by monovalent cations.^[ [14], [24] ^] […] Of the 114 newly synthesized compounds, 31 acted as Slack activators to varying extents. Accordingly, we deemed eight of these as the most interesting candidates.
To determine the Slack‐activating efficacy and potency of the novel compounds, a commercial FluxOR potassium ion channel assay (#10 017; Invitrogen) was used. HEK‐Slack cells were plated at a density of 50 000 cells per well on a poly‐D‐lysine coated (75 µg mL^−1, Sigma–Aldrich) 96‐well, black‐walled microplate with clear bottom (#655 090; Greiner Bio‐One) in DMEM (100 µL per well) containing 10% FBS and 1% penicillin/streptomycin 24 h prior to assaying. In the initial experiments shown in Figure S3A–F (Supporting Information), HEK‐Slack cells were plated at a density of 100 000 cells/well 48 h prior to the assay. On the day of the experiment, the cells were loaded with FluxOR dye according to the manufacturer's protocol. A Na^+‐free assay buffer, adjusted to pH 7.4 with KOH, containing 140 mM choline chloride, 5 mM KCl, 2 mM CaCl2, 2 mM MgSO4, 10 mM HEPES, and 5.55 mM glucose was used. To reduce background fluorescence, all assay components were complemented with a 10% BackDrop Background Suppressor (#B10511; Invitrogen).
All compounds were prepared as a 333 mM stock in DMSO and diluted on the experimental day to a final concentration of 100, 50, 25, 12.5, 6.25, 3.125, or 1.5625 µM in an assay buffer with DMSO adjusted to 0.03%. Before treatment, the cells were washed, and the medium was exchanged for the assay buffer. In a total volume of 90 µL per well, the cells were then incubated for 30 min at 37 °C with compounds at the indicated concentrations, or 0.03% DMSO alone as the vehicle. […] Fluorescence was measured using an Infinite M200 microplate reader (Tecan) with excitation at 485 nm (9 nm bandwidth) and emission at 525 nm (20 nm bandwidth) in the bottom read mode. First, the baseline fluorescence of the individual wells was established. Thereafter cells were stimulated with 20 µL Tl2SO4 (5 mM) solution injected at 100 µL s^−1, and fluorescence was further recorded for 100 s. Assays were run in triplicate. For all time points, the ratio of fluorescence to baseline fluorescence was calculated first for individual wells, and the average was then used.
Dose‐response curves comprising six concentrations were obtained in triplets using fluorescence/fluorescenceBaseline ratios at the 100th s.

[1] = HEK-Slack cells, Na+-free assay buffer, mean (95% confidence interval)

| Structure (SMILES) | motor function, vertical pole test (mice; 3–30 mg i.p.) | Emax (human Slack) [%] | EC50 (human Slack; [1]) | motor function, vertical pole test (mice; dose of ≥ 0.39 mg kg−1 i.p.) | EC50 (human Slack; first preliminary experiments, Na+-free buffer with 2 mM Ca2+, 2 mM Mg2+ and 0.03% DMSO) [µM] |
| --- | --- | --- | --- | --- | --- |
| O=C(O)COCCN1CCN(C2=Nc3ccccc3Oc3ccc(Cl)cc32)CC1 [Compound 6] | did not impair motor function | 96.2 | 30 µM and 30.3 µM | – | – |
| CN1CCN(C2=Nc3ccccc3Oc3ccc(Cl)cc32)CC1 [Loxapine, reference compound] | – | 100 | 20.7 µM | markedly reduced the ability of the mice to perform | 23.4 |
